The text below walks through data of US6384261B1, “Phosphoramidates, phosphinic amides and related compounds and the use thereof to modulate the activity of endothelin” (Texas Biotechnology Corporation, priority 1996, dated 2002).

Where two headings read alike, the source gives them in different places.

The subject of one assay is ETB receptors. To be noted: concentrations up to 100 μM; cited from earlier work.
A further assay deals with ETA receptor. Particulars: read-out: IC50, inhibition of 125I-labelled endothelin-1 binding, cited from earlier work.
The next assay concerns isolated vascular strips. To be noted: read-out: EC50, contractile agent; cited from earlier work.
In a further assay the target is T1, human ETA receptors (Homo sapiens, UniProt P25101).
T1 construct: endogenous in cells; host or cells: TE 671 cells (ATCC HTB 139), membrane preparation
T1 sequence (P25101 21-427): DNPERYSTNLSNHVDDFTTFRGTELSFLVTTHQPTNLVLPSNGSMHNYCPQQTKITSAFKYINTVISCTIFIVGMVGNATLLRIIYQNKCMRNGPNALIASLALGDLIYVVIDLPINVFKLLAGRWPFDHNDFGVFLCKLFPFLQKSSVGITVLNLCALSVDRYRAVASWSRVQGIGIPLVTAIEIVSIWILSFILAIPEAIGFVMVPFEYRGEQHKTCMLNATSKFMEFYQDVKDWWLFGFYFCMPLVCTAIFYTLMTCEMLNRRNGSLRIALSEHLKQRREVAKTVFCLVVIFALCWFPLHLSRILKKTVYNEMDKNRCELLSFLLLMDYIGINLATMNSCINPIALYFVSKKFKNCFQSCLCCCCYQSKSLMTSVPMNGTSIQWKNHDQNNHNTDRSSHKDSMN
Kind of assay: Binding Test #1: inhibition of 125I-endothelin-1 binding to ETA receptors (TE 671 cell membranes). The text has this: (§1) Compounds that are potential endothelin antagonists are identified by testing their ability to compete with ^125I-labeled ET-1 for binding to human ETA receptors or ETB receptors present on isolated cell membranes. The effectiveness of the test compound as an antagonist or agonist of the biological tissue response of endothelin can also be assessed by measuring the effect on endothelin induced contraction of isolated rat thoracic aortic rings. The ability of the compounds to act as antagonists or agonists for ETB receptors can be assessed by testing the ability of the compounds to inhibit endothelin-1 induced prostacyclin release from cultured bovine aortic endothelial cells.
TE 671 cells (ATCC Accession No. HTB 139) express ETA receptors. These cells were grown to confluence in T-175 flasks. Cells from multiple flasks were collected by scraping, pooled and centrifuged for 10 min at 190×g. The cells were resuspended in phosphate buffered saline (PBS) containing 10 mM EDTA using a Tenbroeck homogenizer. The suspension was centrifuged at 4° C. at 57,800×g for 15 min, the pellet was resuspended in 5 ml of buffer A (5 mM HEPES buffer, pH 7.4 containing aprotinin (100 KIU/ml)) and then frozen and thawed once. 5 ml of Buffer B (5 mM HEPES Buffer, pH 7.4 containing 10 mM MnCl2 and 0.001% deoxyribonuclease Type 1) was added, the suspension mixed by inversion and then incubated at 37° C. for 30 minutes. The mixture was centrifuged at 57,800×g as described above, the pellet washed twice with buffer A and then resuspended in buffer C (30 mM HEPES buffer, pH 7.4 containing aprotinin (100 KIU/ml) to give a final protein concentration of 2 mg/ml and stored at −70° C. until use.
The membrane suspension was diluted with binding buffer (30 mM HEPES buffer, pH 7.4 containing 150 mM NaCl, 5 mM MgCl2, 0.5% Bacitracin) to a concentration of 8 μg/50 μl. ^125I-endothelin-1 (3,000 cpm, […]) was added to 50 μL of either: (A) endothelin-1 (for non specific binding) to give a final concentration 80 nM); (B) binding buffer for total binding); or (C) a test compound (final concentration 1 nM to 100 μM). The membrane suspension (50 μL), containing up to 8 μg of membrane protein, was added to each of (A), (B), or (C). Mixtures were shaken, and incubated at 4° C. for 16-18 hours, and then centrifuged at 4° C. for 25 min at 2,500×g. Alternatively, the incubation can be conducted at other temperatures, such as 24° C. When incubated at 24° C., the IC50 concentrations are 2- to 10-fold higher than when the incubation is conducted at 4° C.
The supernatant, containing unbound radioactivity, was decanted and the pellet counted on a Genesys multiwell gamma counter. The degree of inhibition of binding (D) was calculated according to the following equation: [formula]
Each test was generally performed in triplicate.

Another assay has as its target T2, human ETB receptor (Homo sapiens, UniProt P24530).
T2 construct: expressed in transfected cells; host or cells: COS7 cells, membrane preparation
T2 sequence (P24530 27-442): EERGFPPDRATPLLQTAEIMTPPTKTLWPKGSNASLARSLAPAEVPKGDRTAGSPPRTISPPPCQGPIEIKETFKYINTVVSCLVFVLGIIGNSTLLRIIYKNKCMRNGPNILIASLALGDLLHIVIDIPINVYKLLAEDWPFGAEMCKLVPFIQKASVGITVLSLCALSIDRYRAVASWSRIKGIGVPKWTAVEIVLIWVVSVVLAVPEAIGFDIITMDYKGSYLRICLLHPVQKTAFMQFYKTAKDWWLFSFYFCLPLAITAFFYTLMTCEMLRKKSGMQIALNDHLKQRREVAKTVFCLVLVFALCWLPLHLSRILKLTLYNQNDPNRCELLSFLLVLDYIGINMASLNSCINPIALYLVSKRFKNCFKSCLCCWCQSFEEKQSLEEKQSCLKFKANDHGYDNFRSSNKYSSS
Description: Binding Test #2: inhibition of 125I-endothelin-1 binding to ETB receptors (transfected COS7 cell membranes).
Text: as §1
COS7 cells were transfected with DNA encoding the ETB receptor, The resulting cells, which express the human ETB receptor, were grown to confluence in T-150 flasks. Membrane was prepared as described above. The binding assay was performed as described above using the membrane preparation diluted with binding buffer to a concentration of 1 μg/50 μl.
Briefly, the COS7 cells, described above, that had been transfected with DNA encoding the ETB receptor and express the human ETB receptor on their surfaces were grown to confluence in T-175 flasks. Cells from multiple flasks were collected by scraping, pooled and centrifuged for 10 min at 190×g. The cells were resuspended in phosphate buffered saline (PBS) containing 10 mM EDTA using a Tenbroeck homogenizer. The suspension was centrifuged at 4° C. 57,800×g for 15 min, the pellet was resuspended in 5 ml of buffer A (5 mM HEPES buffer, pH 7.4 containing aprotinin (100 KIU/ml)) and then frozen and thawed once. Five ml of Buffer B (5 mM HEPES Buffer, pH 7.4 containing 10 mM MnCl2 and 0.001% deoxyribonuclease Type 1) was added, the suspension mixed by inversion and then incubated at 37° C. for 30 minutes. The mixture was centrifuged at 57,800×g as described above, the pellet washed twice with buffer A and then resuspended in buffer C (30 mM HEPES buffer, pH 7.4 containing aprotinin (100 KIU/ml) to give a final protein concentration of 2 mg/ml.
The binding assay was performed as described above using the membrane preparation diluted to give 1 μg/50 μl of binding buffer.

The next assay has as its system ETA and ETB receptors. Description: Summary statements on IC50 for ETA and ETB receptors / endothelin antagonist activity. It is filed as binding, human. Particulars: ETA versus ETB.
Text: as §1
The membrane suspension was diluted with binding buffer (30 mM HEPES buffer, pH 7.4 containing 150 mM NaCl, 5 mM MgCl2, 0.5% Bacitracin) to a concentration of 8 μg/50 μl. ^125I-endothelin-1 (3,000 cpm, […]) was added to 50 μL of either: (A) endothelin-1 (for non specific binding) to give a final concentration 80 nM); (B) binding buffer for total binding); or (C) a test compound (final concentration 1 nM to 100 μM). The membrane suspension (50 μL), containing up to 8 μg of membrane protein, was added to each of (A), (B), or (C). […]
The IC50 for each of the compounds of the preceding Examples for ETA and ETB receptors has been measured. […]

Where [1] appears, read: incubation at 4° C., results generally from 1, 2, or 3 experiments, read-out: ETA (μM) IC50.
Setting [2] is: incubation at 4° C., results generally from 1, 2, or 3 experiments, read-out: ETB (μM) IC50.

The IC50 is the midpoint of a concentration-inhibition curve. For the compound “cyclo(D-Glu-L-Ala-allo-D-lle-L-Leu-D-Trp) [BE-18257B]”, the “inhibition of binding to receptors in tissues in which ETB receptors predominate” value in the assay with ETB receptors is on record as “fails to inhibit binding”. Also, the IC50 on ETA receptor (aortic smooth muscle) is 1400 nM; at ETA receptor (cultured aortic smooth muscle cells), 500 nM; at ETA receptor (ventricle membranes), 800 nM.
What is called EC50 is the concentration giving half of the maximal effect. For the compound “endothelin-1: potent twenty-one amino acid peptide vasoconstrictor”, the EC50 in the assay with isolated vascular strips is 0.4 nM.
As for `Cc1noc(NP(=O)(c2ccccc2)c2ccccc2)c1Br` [N-(4-bromo-3-methyl-5-isoxazolyl)diphenylphosphinic Amide], the IC50 at human ETA receptors (setting [1]) worked out at 0.84 µM; on human ETB receptor (setting [2]), 85 µM.
As for `CCOP(=O)(Nc1onc(C)c1Br)OCC` [N-(4-bromo-3-methyl-5-isoxazolyl)diethylphosphoramidate], the concentration for half-maximal inhibition (IC50) at human ETA receptors was 20 µM; on human ETB receptor it was more than 100 µM.
On to `Cc1noc(NP(=O)(Oc2ccccc2)Oc2ccccc2)c1Br` [N-(4-bromo-3-methyl-5-isoxazolyl)diphenylphosphoramidate], for which the IC50 was 0.58 µM on human ETA receptors and 77 µM at human ETB receptor. Besides, the “IC50 for ETA receptors substantially less than for ETB receptors (selectivity)” value with ETA and ETB receptors was 10 to 100 fold.
With `Cc1noc(NP(=O)(c2ccccc2)c2ccccc2)c1C` [N-(3,4-dimethyl-5-isoxazolyl)diphenylphosphinic Amide], the IC50 on human ETA receptors (setting [1]) was 7.1 µM; on human ETB receptor (setting [2]), more than 100 µM.
With `Cc1noc(NP(=O)(Oc2ccccc2)Oc2ccccc2)c1C` [N-(3,4-dimethyl-5-isoxazolyl)diphenylphosphoramidate], the IC50 on human ETA receptors is 2.5 µM; at human ETB receptor it was more than 100 µM.
